Where “and” joins values, the source holds several entries; their conditions need not be identical. Equal entries are not always repeated. Marks after values point to notes of the source that are not given here.
Key:
[1] = test system: causal agent of soybean rust (Phakopsora pachyrhizi); experiment: Example C: in vivo preventive test on Phakopsora test (soybeans); conditions: compound alone
[2] = Example G: in vivo ecotoxicity screening test on fish (Danio rerio); conditions: Danio rerio, in vivo, other: exposure of embryos in water containing the compound
Procedure: with ECxi the Effect Concentration (EC) of each chemical i (in ppm) causing x % effect on the ecotoxicity test endpoint.
For each compound combination, the predicted ECx value is calculated. It is then compared to an experimentally measured value. The ratio of predicted versus measured effect for the combination (thereafter called the Model Deviation Ratio or MDR) is then calculated.
The environmental effect of the compound combinations was measured experimentally in laboratory ecotoxicity screening studies with fish (Danio rerio). […] Mortality was recorded after 48 h and 96 h for each tested concentration and a reference control. […] Then, the MDR values were calculated.
This concentrate is then diluted with water to the desired a.i. concentration, leading to a maximal solvent concentration of 0.5%. by weight The compounds alone and the combinations were tested for five increasing concentrations comprised between 0.01 and 1000 ppm (mg/1) a.i., (e.g. 0.1, 1.0, 10 and 100 ppm a.i). For the combinations, compounds A and B were mixed in a weight ratio of 5:1 to 1:5 and five increasing concentrations were tested for each ratio.

Pyrenophora oryzae = experiment: Example F: in vitro-Test with Pyrenophora oryzae; format: cell-based; conditions: compound alone
[3] = test system: causal agent of apple scab (Venturia inaequalis); experiment: Example E: in vivo preventive test on Venturia test (apples); conditions: compound alone
Alternaria solani = experiment: Example A: in vivo preventive test on Alternaria test (tomatoes); conditions: compound alone, evaluated 3 days after inoculation
Procedure: (§1) The test is evaluated 3 days after the inoculation.

Colletotrichum coccodes = experiment: Example B: in vivo preventive test on Colletotrichum test (tomatoes); conditions: compound alone
Procedure: as §1

Sphaerotheca fuliginea = experiment: Example D: in vivo preventive test on Sphaerotheca test (cucumbers); conditions: compound alone
Septoria tritici = experiment: Example F: in vitro-Test with Septoria tritici; format: cell-based; conditions: compound alone
[4] = Measurement of Log P values by HPLC on reversed phase columns (EEC directive 79/831 Annex V.A8); format: physicochemical
Procedure: Measurement of Log P values was performed according to EEC directive 79/831 Annex V.A8 by HPLC (High Performance Liquid Chromatography) on reversed phase columns with the following methods:

O=C(NCCc1ncc(C(F)(F)F)cc1Cl)c1ccccc1C(F)(F)F [2.005 fluopyram]
Efficacy in % found ([1]; 5 ppm a.i.): 0% | Efficacy in % found ([1]; 10 ppm a.i.): 0% | Efficacy in % found ([1]; 20 ppm a.i.): 0%

OC(Cc1ccccc1Cl)(Cn1nc[nH]c1=S)C1(Cl)CC1 (stereo not drawn) [Example 1.018, prothioconazole]
LC50 at 48 h [2]: 9.49 µg/mL | LC50 at 96 h [2]: 3.16 µg/mL

COc1ccnc(C(=O)N[C@H]2COC(=O)[C@H](Cc3ccccc3)[C@@H](OC(=O)C(C)C)[C@H](C)OC2=O)c1OCOC(=O)C(C)C [Example 3.025, (3S,6S,7R,8R)-8-benzyl-3-[({3-[(isobutyryloxy)methoxy]-4-methoxypyridin-2-yl}carbonyl)amino]-6-methyl-4,9-dioxo-1,5-dioxonan-7-yl 2-methylpropanoate]
Efficacy % (Pyrenophora oryzae; 4 ppm): 0% | Efficacy % (Pyrenophora oryzae; 20 ppm): 0% | LC50 at 48 h [2]: 2.31 µg/mL | LC50 at 96 h [2]: 1.87 µg/mL | Efficacy in % found ([1]; 5 ppm a.i.): 0% | Efficacy in % found ([1]; 10 ppm a.i.): 30% | Efficacy in % found ([1]; 20 ppm a.i.): 35%

O=C(Cc1ccccc1)N/C(=N\OCC1CC1)c1c(C(F)(F)F)ccc(F)c1F [15.008 cyflufenamid]
Efficacy in % found ([3]; 1 ppm a.i.): 0% | Efficacy in % found ([3]; 2 ppm a.i.): 0% | Efficacy in % found ([3]; 4 ppm a.i.): 8%

CON=C(C(=O)OC)c1ccccc1CON=C(C)c1cccc(C(F)(F)F)c1 [15.047 trifloxystrobin]
Efficacy % (Pyrenophora oryzae; 0.04 ppm): 17% | Efficacy % (Pyrenophora oryzae; 0.2 ppm): 86%

O=C(Cc1ccccc1)N/C(=N\OCC1CC1)c1c(C(F)(F)F)ccc(F)c1F [Example 15.008, cyflufenamid]
LC50 at 48 h [2]: 9.71 µg/mL | LC50 at 96 h [2]: 5.2 µg/mL

N#Cc1c(Cl)c(Cl)c(Cl)c(C#N)c1Cl [5.004 chlorothalonil, chlorothalonil]
Efficacy in % found (Alternaria solani; 12.5 ppm a.i.): 0% | Efficacy in % found (Alternaria solani; 25 ppm a.i.): 0% | Efficacy in % found (Alternaria solani; 50 ppm a.i.): 15% | Efficacy in % found (Colletotrichum coccodes; 12.5 ppm a.i.): 0% | Efficacy in % found (Colletotrichum coccodes; 25 ppm a.i.): 0% | Efficacy in % found (Colletotrichum coccodes; 50 ppm a.i.): 0% | Efficacy in % found ([1]; 12.5 ppm a.i.): 0% | Efficacy in % found ([1]; 25 ppm a.i.): 0% | Efficacy in % found ([1]; 50 ppm a.i.): 30%

CCCOc1nc2ccc(I)cc2c(=O)n1CCC [13.004 proquinazid]
Efficacy in % found (Sphaerotheca fuliginea; 25 ppm a.i.): 90% | Efficacy in % found (Sphaerotheca fuliginea; 50 ppm a.i.): 100% | Efficacy in % found (Sphaerotheca fuliginea; 100 ppm a.i.): 100% | Efficacy % (Septoria tritici; 4 ppm): 0% | Efficacy % (Septoria tritici; 20 ppm): 37% and 40%

CC(C)C1CCC(Cc2ccc(Cl)cc2)C1(O)Cn1cncn1 (stereo not drawn) [Example 1.012, ipconazole]
LC50 at 48 h [2]: 13.8 µg/mL | LC50 at 96 h [2]: 6.57 µg/mL

N#Cc1c[nH]cc1-c1cccc2c1OC(F)(F)O2 [Example 13.001, fludioxonil]
LC50 at 48 h [2]: 0.91 µg/mL | LC50 at 96 h [2]: 0.89 µg/mL

Cc1nn(C)c(F)c1C(=O)Nc1ccccc1C(C)CC(C)C (stereo not drawn) [2.017 penflufen]
Efficacy in % found ([3]; 5 ppm a.i.): 18% | Efficacy in % found ([3]; 10 ppm a.i.): 26% | Efficacy in % found ([3]; 20 ppm a.i.): 23% | Efficacy in % found ([1]; 5 ppm a.i.): 0% | Efficacy in % found ([1]; 10 ppm a.i.): 8% | Efficacy in % found ([1]; 20 ppm a.i.): 60%

propineb [5.018 propineb]
Efficacy in % found (Alternaria solani; 12.5 ppm a.i.): 0% | Efficacy in % found (Alternaria solani; 25 ppm a.i.): 8% | Efficacy in % found (Alternaria solani; 50 ppm a.i.): 50% | Efficacy in % found ([1]; 12.5 ppm a.i.): 0% | Efficacy in % found ([1]; 25 ppm a.i.): 0% | Efficacy in % found ([1]; 50 ppm a.i.): 40%

O=C(Nc1ccccc1)N(Cc1ccc(Cl)cc1)C1CCCC1 [Example 4.005, pencycuron]
LC50 at 48 h [2]: > 200 µg/mL | LC50 at 96 h [2]: > 200 µg/mL

CC(C)c1ccc(Cl)cc1CN(C(=O)c1c(C(F)F)nn(C)c1F)C1CC1 [Example 2.038, N-(5-chloro-2-isopropylbenzyl)-N-cyclopropyl-3-(difluoromethyl)-5-fluoro-1-methyl-1H-pyrazole-4-carboxamide]
LC50 at 48 h [2]: 0.51 µg/mL | LC50 at 96 h [2]: 0.35 µg/mL | Efficacy in % found ([1]; 1 ppm a.i.): 0% | Efficacy in % found ([1]; 2 ppm a.i.): 0% | Efficacy in % found ([1]; 4 ppm a.i.): 0%

CC(C)C1CCC(Cc2ccc(Cl)cc2)C1(O)Cn1cncn1 (stereo not drawn) [1.012 ipconazole]
Efficacy in % found (Sphaerotheca fuliginea; 2.5 ppm a.i.): 0% | Efficacy in % found (Sphaerotheca fuliginea; 5 ppm a.i.): 0% | Efficacy in % found (Sphaerotheca fuliginea; 10 ppm a.i.): 0%

CON=C(C(=O)OC)c1ccccc1CON=C(C)c1cccc(C(F)(F)F)c1 [Example 3.020, trifloxystrobin]
LC50 at 48 h [2]: 0.4 µg/mL | LC50 at 96 h [2]: 0.24 µg/mL

CC(C)(C)[C@@H](O)[C@@H](Cc1ccc(Cl)cc1)n1cncn1 (racemic) [Example 1.015, paclobutrazol]
LC50 at 48 h [2]: 99.8 µg/mL | LC50 at 96 h [2]: 56.5 µg/mL

CC(C)(C)C(O)(CCc1ccc(Cl)cc1)Cn1cncn1 (stereo not drawn) [Example 1.021, tebuconazole]
LC50 at 48 h [2]: 19.7 µg/mL | LC50 at 96 h [2]: 19.7 µg/mL

CC1CC(C)(C)c2cccc(NC(=O)c3cn(C)nc3C(F)F)c21 (stereo not drawn) [Example 2.027, 3-(difluoromethyl)-1-methyl-N-(1,1,3-trimethyl-2,3-dihydro-1H-inden-4-yl)-1H-pyrazole-4-carboxamide, reference compound]
Efficacy % (Pyrenophora oryzae; 0.8 ppm): 55% | Efficacy % (Pyrenophora oryzae; 4 ppm): 81% | LC50 at 48 h [2]: 1.85 µg/mL | LC50 at 96 h [2]: 1.74 µg/mL | Efficacy in % found ([3]; 1 ppm a.i.): 8% | Efficacy in % found ([3]; 2 ppm a.i.): 8% | Efficacy in % found ([3]; 4 ppm a.i.): 74% | Efficacy in % found ([1]; 1 ppm a.i.): 15% | Efficacy in % found ([1]; 2 ppm a.i.): 85% | Efficacy in % found ([1]; 4 ppm a.i.): 96%

N#Cc1cncn1CC(O)(Cc1cc(F)cc(F)c1)C1(Cl)CC1 (stereo not drawn) [Example I-156]
LogP [4]: 2.86^[a]

N#Cc1cncn1CC(O)(Cc1ccc(Oc2ccc(Cl)cc2)cc1Cl)C1(Cl)CC1 (racemic) [Example I-53]
LogP [4]: 4.54^[a]

N#Cc1cncn1CC(O)(Cc1ccc(F)c(F)c1)C1(Cl)CC1 (stereo not drawn) [Example I-109]
LogP [4]: 2.78^[a]

CC(C)C(O)(Cc1ccc(F)cc1)Cn1cncc1C#N (stereo not drawn) [Example I-162]
LogP [4]: 2.44^[a]

OC(Cc1ccnc(Cl)c1Cl)(Cn1cncc1Cl)C1(Cl)CC1 (racemic) [Example I-67]
LogP [4]: 2.08^[a]

C#Cc1cncn1CC(O)(Cc1ccccc1Cl)C1(Cl)CC1 (racemic) [Example I-38]
LogP [4]: 2.09^[a]

CC(C)C(O)(Cc1ccc(F)c(F)c1F)Cn1cncc1C#N (stereo not drawn) [Example I-105]
LogP [4]: 2.78^[a]

C#Cc1cncn1CC(O)(Cc1ccccc1F)C1(Cl)CC1 (racemic) [Example I-36]
LogP [4]: 1.89^[a]

N#Cc1cncn1CC(O)(Cc1ccc(Cl)cc1F)C1(F)CC1 (racemic) [Example I-96]
LogP [4]: 2.78^[a]

OC(Cc1ccc(Cl)cc1F)(Cn1cncc1Cl)C1(Cl)CC1 (single isomer, unassigned) [Example I-113]
LogP [4]: 2.54^[a]

CON=C(C(=O)OC)c1ccccc1CON=C(C)c1cccc(C(F)(F)F)c1 [3.020 trifloxystrobin]
Efficacy % (Pyrenophora oryzae; 0.04 ppm): 0% | Efficacy % (Pyrenophora oryzae; 0.2 ppm): 0% | Efficacy % (Pyrenophora oryzae; 1 ppm): 0%

OC(Cc1ccc(F)c(F)c1)(Cn1cncc1Cl)C1(Cl)CC1 (stereo not drawn) [Example I-110]
LogP [4]: 2.23^[a]

OC(Cc1ccccc1Cl)(Cn1cncc1F)C1(Cl)CC1 (stereo not drawn) [Example I-16]
LogP [4]: 1.94^[a]

CC(C)C(O)(Cc1cccc(F)c1F)Cn1cncc1C#N (stereo not drawn) [Example I-149]
LogP [4]: 2.47^[a]

N#Cc1cncn1CC(O)(Cc1ccnc(Cl)c1Cl)C1(Cl)CC1 (racemic) [Example I-50]
LogP [4]: 2.47^[a]

N#Cc1cncn1CC(O)(Cc1ccccc1Cl)C1(F)CC1 (racemic) [Example I-98]
LogP [4]: 2.53^[a]

N#Cc1cncn1CC(O)(Cc1ccc(F)cc1Cl)C1(Cl)CC1 (stereo not drawn) [Example I-154]
LogP [4]: 3.00^[a]

N#Cc1cncn1CC(O)(Cc1ccncc1Br)C1(Cl)CC1 (racemic) [Example I-46]
LogP [4]: 1.94^[a]

Nc1cncn1CC(O)(Cc1ccccc1Cl)C1(Cl)CC1 (racemic) [Example I-78]
LogP [4]: 1.50^[a]

N#Cc1cncn1C[C@@](O)(Cc1ccccc1F)C1(Cl)CC1 [Example I-133, 1-[(2S)-2-(1-chlorocyclopropyl)-3-(2-fluorophenyl)-2-hydroxypropyl]-1H-imidazole-5-carbonitrile]
chromatographic logP ([4]; reversed phase HPLC column, method [a]: LC-UV, acidic range, 0.1% formic acid in water and acetonitrile as eluent, Table 1, compounds of formula (I)): 2.59

N#CCc1cncn1CC(O)(Cc1ccccc1Cl)C1(Cl)CC1 (stereo not drawn) [Example I-21]
LogP [4]: 1.66^[a]

Cc1ccc(CC(O)(Cn2cncc2Cl)C2(Cl)CC2)c(F)c1 (stereo not drawn) [Example I-108]
LogP [4]: 2.34^[a]
